Source: US7098219B2, “Inhibitors of cellular efflux pumps of microbes” (Wockhart Limited, priority 2000, dated 2006)

Key:
E. coli 2051 = assay: Antibiotic diffusion assay, levofloxacin plate versus water control plate; format: cell-based, Escherichia coli; details: zone of inhibition in levofloxacin (15 mcg/ml) plate minus water control plate; Mueller Hinton Agar, 35° C. 20 hours
Protocol: (§1) Testing method for Inhibition of the Efflux Pumps of Pseudomonas aeruzinosa 23587, E. coli 2051, Streptococcus pneumoniae 3514 and Streptococcus pyozenus 26-00
The activity of an efflux pump inhibitor of E. coli 2051 was also assessed using an antibiotic diffusion assay. For this assay E. coli 2051 is used. E. coli 2051 is a clinical isolate containing multiple efflux pumps. E. coli 2051 are grown in tryptic soya broth for 20 hours at 35° C. Two antibiotic assay plates are prepared in Mueller Hinton Agar using above inoculum. The bacterial count in a plate is 1×10^6 cells/ml. In one of the plates, levofloxacin is incorporated at 15 mcg/ml, while in the control plate an equivalent amount of water is added. […]. The plates are incubated at 35° C. for 20 hours and the zone of inhibition was recorded in mm (table 3) . The difference in the diameter of zone of inhibition was calculated by subtracting from the zone of inhibition in the levofloxacin containing plate the diameter of the zone of inhibition in the control plate.

[1] = tested on: Pseudomonas aeruginosa 23587; assay: as above; format: cell-based; details: zone of inhibition in levofloxacin (5 mcg/ml) plate minus water control plate; Mueller Hinton Agar, 35° C. 20 hours
Protocol: as §1
Antibiotic Diffusion Assay
The activity of efflux pump inhibitor was also assessed using an antibiotic diffusion assay. For this assay Pseudomonas aeruginosa 23587 is used. Pseudomonas aeruginosa 23587 is a clinical isolate containing multiple efflux pumps which can be mexAB, mexCD, mexEF but not limited to mex classification only. Pseudomonas aeruginosa are grown in tryptic soya broth for 20 hours at 35° C. Two antibiotic assay plates are prepared in Mueller Hinton Agar using above inoculum. The bacterial count in a plate is 1×10^6 cells/ml. In one of the plates, levofloxacin is incorporated at 5 mcg/ml, while in the control plate an equivalent amount of water is added. […]. The plates are incubated at 35° C. for 20 hours and the zone of inhibition was recorded in mm (table 2). The difference in the diameter of zone of inhibition was calculated by subtracting from the diameter of the zone of inhibition in the levofloxacin containing plate the diameter of the zone of inhibition in the water containing control plate. Example, if the diameter of the zone of inhibition in the levofloxacin plate is X mm and the diameter of the zone of inhibition in the control plate is Y mm, the difference Z=X−Y and is a measure of the activity of the efflux pump inhibitor.

[2] = tested on: Mef Efflux Pump of Streptococcus pneumoniae 3514 and Streptococcus pyogenes 26-00; assay: Two plate diffusion assay for macrolide (Mef) efflux pump inhibitors, azithromycin plate versus control plate; format: cell-based; details: zone of inhibition in antibiotic plate (method: azithromycin 0.5 mcg/ml; footnote: levofloxacin) minus water control plate; strain not given
[3] = tested on: Staphylococcus aureus 1199 B NorA+; format: cell-based; details: combination with ciprofloxacin, broth microdilution checkerboard, 35° C. 20 hours; FIC index ≦0.5 synergistic, 0.5–2.0 additive, >2.0 antagonistic
Procedure, shortened: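 Broth microdilution checkerboard with ciprofloxacin against S. aureus 1199B NorA+, pump inhibitor titrated along one axis; inoculum 5×10^5 CFU/ml in Mueller Hinton broth, 35 °C for 20 hours. Growth read by visible turbidity, confirmed by plate reader; FIC index derived from inhibitor MIC in combination versus alone.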

| Molecule | Difference in Zone diameter Z1 (mm) (E. coli 2051) | Difference in Zone diameter Z1 (mm) [1] [mm] | Difference in Zone diameter Z1 (mm) [2] [mm] | FIC INDEX [3] |
| --- | --- | --- | --- | --- |
| COc1c(N2CCC(N)C(C)C2)c(F)cc2c(=O)c(C(=O)O)cn(C3CC3)c12 (stereo not shown) [Example 3 (P. aeruginosa), 1-Cyclopropyl-6-fluoro-8-methoxy-1,4-dihydro-7-(4′-amino-3′-methylpiperidin-1-yl)-4-oxo-quinoline-3-carboxylic acid] | 10 | 7 | 26 |  |
| C[C@H]1CCc2c(N3CCC(O)CC3)c(F)cc3c(=O)c(C(=O)[O-])cn1c23.C[N+](C)(C)CCO [Example 22 (P. aeruginosa), S-(−)-9-Fluoro-6,7-dihydro-8-(4′-hydroxypiperidin-1-yl)-5-methyl-1-oxo-1H,5H-benzo[i,j]quinolizine-2-carboxylic acid, choline salt] | 9 | 3 |  |  |
| C[C@H]1CCc2c(N3CCC(O)CC3)c(F)cc3c(=O)c(C(=O)O)cn1c23.OCCNCCO [Example 24 (P. aeruginosa), S-(−)-9-Fluoro-6,7-dihydro-8-(4′-hydroxypiperidin-1-yl)-5-methyl-1-oxo-1H,5H-benzo[i,j]quinolizine-2-carboxylic acid, diethanolamine salt] | 11 | 4 |  |  |
| CC(C)C[C@@H](N)C(=O)OC1CCN(c2c(F)cc3c(=O)c(C(=O)O)cn4c3c2CC[C@@H]4C)CC1.Cl [Example 29 (P. aeruginosa), (S)-(−)-9-Fluoro-6,7-dihydro-8-{4′-(D-leucyloxy)piperidin-1-yl}-5-methyl-1-oxo-1H,5H-benzo[i,j]quinolizine-2-carboxylic acid hydrochloride] | 18 | 12 |  |  |
| (R)-(+)-9,8-fluoro-8-fluoro-6,7-dihydro-5-methyl-1-oxo-1H,5H-benzo[i,j]quinolizine-2-carboxylate Methoxy phe-lys-OMe [Example 32 (P. aeruginosa)] | 11 | 8 |  |  |
| (S)-(−)-Morpholinoethyl-9-fluoro-6,7-dihydro-8-(4′-hydroxypiperidin-1-yl)-5-methyl-1-oxo-1H,5H-benzo[i,j]quinolizine-2-carboxylic acid [Example 58 (NorA)] | 8 | 2 |  | 0.370 |
| S-(-9-Fluoro-6,7-dihydro-8-(4′-hydroxypiperidin-1-yl)-5-methyl-1-oxo-1H,5H-benzo[i,j]quinolizine-2-carboxylic acid, 1-hydroxyethylpyrrolidine salt [Example 23 (P. aeruginosa)] | 11 | 3 |  |  |
